For data set [1], the system named is Bax. The data set is described as follows: Apoptotic markers assay: Bax level in HCT-116 cells. Format: cell-based, human. Conditions: for Bax fold change: relative to untreated control.
For data set [2], the system named is MCF-7. The data set can be described thus: Antiproliferative assay (MTT). Conditions: Homo sapiens, MCF7, MCF-7 breast, mean of three experiments ± SD. The format is cell-based. The text has this: (§1) The MTT assay[53,54] was employed to evaluate the antiproliferative efficacy of new compounds 8a–l against two human cancer cell lines: MCF-7 (breast) and HCT-116 (colorectal carcinoma). Erlotinib was employed as the benchmark. Check Appendix A for additional experimental information.
(§2) The MTT assay[53,54] was used to evaluate the antiproliferative properties of novel compounds 8a–l against two human cancer cell lines: MCF-7 (breast cancer) and HCT-116 (colorectal carcinoma). Erlotinib was utilized as the reference. […] The provided values represent the means of three experiments ± standard deviation (SD). […]
(§3) of Ham's F-12 medium/ Dulbecco's modified Eagle's medium (DMEM) (1:1) supplemented with 10% foetal calf serum (GIBCO, UK), 2 mM glutamine, insulin (10 μg/mL), hydrocortisone (500 ng/mL) and epidermal growth factor (20 ng/mL). Trypsin ethylenediamine tetra acetic acid (EDTA) was used to passage the cells after every 2-3 days. 96-well flat-bottomed cell culture plates were used to seed the cells at a density of 10^4 cells mL-1. The medium was aspirated from all the wells of culture plates after 24 h followed by the addition of synthesized compounds (in 200 μL medium to yield a final concentration of 0.1% (v/v) dimethyl sulfoxide) into individual wells of the plates.
(§4) Four wells were designated to a single compound. The plates were allowed to incubate at 37°C for 96 h. Afterwards, the medium was aspirated and 3-[4,5-dimethylthiazol-2-yl]-2,5-diphenyltetrazolium bromide (MTT) (0.4 mg/mL) in medium was added to each well and subsequently incubated for 3 h. The medium was aspirated and 150 μL dimethyl sulfoxide (DMSO) was added to each well. The plates were vortexed followed by the measurement of absorbance at 540 nm on a microplate reader. […]
(§5) All cell lines […]
(§6) were obtained from ATCC (American Type Cell Culture). […]
(§7) μM), benzamidine HCl (16 μg/mL), NaCl (10 mM),leupeptin (10 μg/mL) and pepstatin (10 μg/mL) at 0°C for 20 min at pH 7.4, followed by centrifugation for 20 min. To eliminate the nonspecifically bound material, a Ni-NTA super flow packed column was (1 picture or pasted object on this page, not shown here)

Data set [3] relates to HCT-116. The data set can be described thus: Antiproliferative assay (MTT). Conditions: Homo sapiens, HCT-116 colorectal, mean of three experiments ± SD. The format is cell-based.
Excerpt: as §1, §2, §3, §4, §5, §6, §7

Data set [4] relates to IL-6. The data set can be described thus: IL-6 level by qRT-PCR in HCT-116 cells. Conditions: Homo sapiens, HCT-116, read-out: IL-6 (% inhibition). In general terms: Real-time PCR tracks product formation cycle by cycle.
Method: (§8) The reference molecule was dexamethasone, a drug that uniformly regulates the immune system.
TNF-α and IL6 a determination
(§9) determined using of q RT-PCR technique. By using q RTPCR (reference), the amount
(§10) treated HCT-116 cells was measured (at the IC50 concentrations). Total RNA was
(§11) accordance with the manufacturer's instructions (RNeasy mini kit, Qiagen, Germany).
(§12) Following RNA extraction, the Revert Aid First Strand cDNA Synthesis kit (Thermo
(§13) Scientific, USA) was used to create cDNA. The Rotor-Gene Q real-time PCR thermal
(§14) cycler was used to amplify target cDNA for apoptosis markers and GAPDH [as a
(§15) normalization (housekeeping) gene] using one step RT-PCR SYBR® Green kit Master
(§16) Mix (Bio-Rad Laboratories, USA). Two microliters of cDNA were combined with one
(§17) microliter of forward primer, one microliter of reverse primer, ten microliters of master
(§18) mixture, and twenty microliters of nuclease-free water to complete the reaction volume.
(§19) Every experiment was carried out three times.
(§20) Quantitative Real Time Reverse-Transcriptase PCR (qRT-PCR) primer sequences
TNF-α : R 5'- [sequence] -3'.
IL6 : R 5'- [sequence] -3
GAPDH : R 5’- [sequence]-3’
Data set [5] has as its target VEGFR-2 (Homo sapiens, UniProt P35968). The data set can be described thus: VEGFR-2 inhibitory assay.
Method: Prepare all the solutions using autoclaved, deionized water and analytical grade
reagents. Prepare and store all the reagents at room temperature (unless indicated
EDTA, adjust the pH to 8.0 using NaOH solution, add 5 mL ultra-pure water; 1×Kinase
solution (1 M), 1 mL DTT, 50 μL tween-20, 450 mL ultrapure water, adjust pH to 7.5
and constant volume to 500 mL using ultrapure water; 4×Stop solution (40 mM): Mix
0.8 mL of the foregoing EDTA solution, 1 mL 10×Detection Buffer and 8.2 mL ultra-
pure water; 1×Detection Buffer: Mix 1 mL 10×Detection Buffer with 9 mL water;
before use). The assays used an ULight-labeled peptide substrate and a Europium-
W1024-labeled antiphosphotyrosine antibody. The VEGFR-2 was purchased from
Carna Biosciences, Inc. (New York, USA). The 384-well plates were obtained from
PerkinElmer. Compounds were dissolved in DMSO and diluted to 11 concentrations at
2×VEGFR-2 kinase solution (0.5 nM) was added to 384-well plates homogeneous
mixing and pre-reaction at room temperature for 30 min. […]
well plate, The final concentration of DMSO in the mixing system was 4%. […] The plate was read using an Envision plate reader. The inhibition rate (%) = (positive well reading-compound well reading)/(positive well reading-negative well reading)×100. The corresponding IC50 values were calculated using GraphPad Prism 5.0.
Data set [6] relates to Caspase-3. The data set can be described thus: Caspase-3 activation assay in HCT-116 cells. Format: cell-based, human. Conditions: for Caspase-3 fold change: relative to control. As to the method:
Appendix A gives more details.
Additionally, activating caspases is essential for both initiating and terminating the apoptotic process.[64] Caspase-3 is an essential enzyme that cleaves several proteins within cells, leading to apoptotic cell death.[65] […]
be read immediately after the Stop Solution is added or within one hour if the microwell strips are stored at 2 - 8°C in the dark. Read the absorbance of each microwell on a spectrophotometer using 450 nm as the primary wavelength.
4.2.5. Caspase-3 activation assay
Allow all reagents to reach room temperature before use. Gently mix all liquid reagents prior to use. Determine the number of 8-well strips needed for the assay. Insert these in the frame(s) for current use. Add 100 μl of the Standard Diluent Buffer to the zero standard wells. Well(s) reserved for chromogen blank should be left empty. Add 100 μl of standards and controls or diluted samples to the appropriate microtiter wells. The sample dilution chosen should be optimized for each experimental system. Tap gently on side of plate to mix. Cover wells with plate cover and incubate for 2 hours at room temperature. Thoroughly aspirate or decant solution from wells and discard the liquid, Wash wells 4 times. Pipette 100 μl of Caspase-3 (Active) Detection Antibody solution into each well except the chromogen blank(s). Tap gently on the side of the plate to mix. Cover plate with plate cover and incubate for 1 hour at room temperature.
Thoroughly aspirate or decant solution from wells and discard the liquid, Wash wells 4 times. Add 100 μl Anti-Rabbit IgG HRP Working Solution to each well except the chromogen blank(s). Prepare the working dilution as described in Preparing IgG HRP.
Cover wells with the plate cover and incubate for 30 minutes at room temperature.
Thoroughly aspirate or decant solution from wells and discard the liquid. Wash wells 4 times. Add 100 μl of Stabilized Chromogen to each well. The liquid in the wells will […]
begin to turn blue. […] The
Tap side of plate gently to mix.
Use a curve fitting software to generate […]
for the dilution in step 3.
4.2.6. Caspase-8/9 activation assay
This lysate was diluted in […]

Data set [7] has as its system TNF-α. The data set can be described thus: TNF-α level by qRT-PCR in HCT-116 cells. Conditions: for TNF-α (% inhibition): HCT-116 cells, 24 hours, at IC50 against HCT-116 (8g 24 nM, 8h 23 nM), qRT-PCR.
Method: as §8
TNF-α and IL6 a determination
as §9, §10, §11, §12, §13, §14, §15, §16, §17, §18, §19, §20
TNF-α : R 5'- [sequence] -3'.
IL6 : R 5'- [sequence] -3
GAPDH : R 5’- [sequence]-3’
Data set [8] in a line: In vitro cytotoxicity against normal human cells (MTT). Format: cell-based. Conditions: human, WI-38 cells (normal human diploid cell line), normal human diploid cell line WI-38, MTT. From the text:
The results indicated a favorable safety margin for the evaluated compounds about normal cells, Table 5.

Setting [9] is: Homo sapiens, HCT-116, read-out: TNF-α (% inhibition), HCT-116 cells, 24 hours, at IC50 against HCT-116 (8g 24 nM, 8h 23 nM), qRT-PCR.

Structures are written as SMILES. Where “and” joins values, the source holds several entries; their conditions need not be identical. Equal entries are not always repeated.

Sequence of VEGFR-2 (P35968 20-1356): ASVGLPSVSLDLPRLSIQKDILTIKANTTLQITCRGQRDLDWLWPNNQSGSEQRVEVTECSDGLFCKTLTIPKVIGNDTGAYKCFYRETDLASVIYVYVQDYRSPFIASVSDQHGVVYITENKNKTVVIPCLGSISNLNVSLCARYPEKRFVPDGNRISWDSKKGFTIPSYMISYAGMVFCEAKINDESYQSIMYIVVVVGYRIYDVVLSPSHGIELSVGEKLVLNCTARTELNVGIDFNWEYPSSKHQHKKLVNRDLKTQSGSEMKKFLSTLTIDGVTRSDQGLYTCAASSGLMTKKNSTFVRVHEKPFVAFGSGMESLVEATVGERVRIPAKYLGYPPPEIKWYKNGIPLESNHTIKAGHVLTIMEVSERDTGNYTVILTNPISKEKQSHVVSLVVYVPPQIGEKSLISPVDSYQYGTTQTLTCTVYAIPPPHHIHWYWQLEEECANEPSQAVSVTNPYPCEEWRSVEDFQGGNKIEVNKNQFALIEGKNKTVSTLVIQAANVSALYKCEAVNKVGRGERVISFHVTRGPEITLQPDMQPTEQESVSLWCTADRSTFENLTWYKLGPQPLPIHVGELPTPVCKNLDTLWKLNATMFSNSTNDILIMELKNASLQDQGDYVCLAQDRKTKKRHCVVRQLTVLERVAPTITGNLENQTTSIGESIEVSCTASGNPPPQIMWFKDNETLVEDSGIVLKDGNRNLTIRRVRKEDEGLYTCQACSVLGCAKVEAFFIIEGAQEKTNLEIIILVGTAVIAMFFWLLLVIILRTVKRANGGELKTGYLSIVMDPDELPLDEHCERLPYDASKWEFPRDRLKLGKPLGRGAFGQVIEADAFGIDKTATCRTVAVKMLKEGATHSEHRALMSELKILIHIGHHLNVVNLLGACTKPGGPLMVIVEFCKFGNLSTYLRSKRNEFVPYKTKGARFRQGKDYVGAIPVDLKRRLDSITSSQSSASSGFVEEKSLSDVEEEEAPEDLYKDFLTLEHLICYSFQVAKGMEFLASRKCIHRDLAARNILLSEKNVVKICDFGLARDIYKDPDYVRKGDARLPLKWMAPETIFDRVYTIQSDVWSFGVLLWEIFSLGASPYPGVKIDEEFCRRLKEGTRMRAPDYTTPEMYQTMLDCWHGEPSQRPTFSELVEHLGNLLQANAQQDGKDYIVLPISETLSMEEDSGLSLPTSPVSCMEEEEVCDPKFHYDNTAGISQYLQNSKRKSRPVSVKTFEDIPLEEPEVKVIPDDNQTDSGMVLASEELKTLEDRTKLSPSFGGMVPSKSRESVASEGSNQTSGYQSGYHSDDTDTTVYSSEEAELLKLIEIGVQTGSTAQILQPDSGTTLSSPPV

As usually defined, the IC50 is the midpoint of a concentration-inhibition curve. Higher therefore signals weaker potency in that assay. One may read the inhibition as the share of the control response that was lost under treatment. In turn, `CCS(=O)(=O)c1ccc2[nH]nc(C(=O)NNC(=O)NC34CC5CC(CC(C5)C3)C4)c2c1` [Compound 8g, 2-(5-(Ethylsulfonyl)-1H-indazole-3-carbonyl)-N-(adamantan-1-yl)hydrazine-1-carboxamide] yielded a Bax level in data set [1] of 490 ± 2 pg/mL. The Bax fold change in data set [1] came out at 8.20 fold. Further, the IC50 in data set [2] was 28 ± 1 nM; in data set [3], 24 ± 1 nM; in data set [5], 16 ± 1 nM; in data set [8] it was over 120 nM. Besides, the results for the inhibition at 0.024 µM in data set [4] and in data set [7] (setting [9]) were 86% and about 80%, respectively. Besides, in data set [6], the “Caspase-3 Conc.” value was 490 ± 3 pg/mL and 490 ± 5 pg/mL. Further, the Caspase-3 fold change in data set [6] amounted to 7.50 fold. The “TNF-α (% inhibition)” value in data set [7] is on record as 79%.

With `CCS(=O)(=O)c1ccc2[nH]nc(C(=O)NNC(=O)NC3CCCCCC3)c2c1` [Compound 8h, 2-(5-(Ethylsulfonyl)-1H-indazole-3-carbonyl)-N-(cycloheptyl)hydrazine-1-carboxamide], the Bax level in data set [1] turned out to be 510 ± 3 pg/mL. Moreover, in data set [1], the Bax fold change was found to be 8.50 fold. For the same compound, the IC50 in data set [2] was 25 ± 1 nM; in data set [3], 23 ± 1 nM; in data set [5], 12 ± 1 nM; in data set [8], over 120 nM. Further, the inhibition at 0.023 µM is 91% in data set [4] and about 80% in data set [7] (setting [9]). Also, in data set [6], the “Caspase-3 Conc.” value was 510 ± 4 pg/mL and 510 ± 5 pg/mL. In data set [6], this compound displayed a Caspase-3 fold change of 7.90 fold. Moreover, in data set [7], the “TNF-α (% inhibition)” value worked out at 82%.

The values above are taken from PMC12679585, “Design, synthesis, and characterization of novel 5-ethylsulfonyl-indazole-3-carboxamides as dual VEGFR-2 and EGFR inhibitors: apoptotic antiproliferative and immunomodulatory evaluations” (RSC Advances, 2025).
